From ChEMBL document CHEMBL1154563, “Flavonol-cinnamate cycloadducts and diamide derivatives from Aglaia laxiflora” (J Nat Prod, 2000)
In brackets after ≈: the same amount, converted by molar mass. Activity calls are given as the source filed them. The rule behind the calls is not given here.

What was measured:
P388 = assay: Cytotoxicity against mouse P388 cells; type: functional, cell-based
MOLT-4 = assay: Cytotoxicity against human MOLT4 cells; type: functional, cell-based
WEHI-164 = assay: Cytotoxicity against mouse WEHI164 cells; type: functional, cell-based
[1] = Cytotoxicity against mouse LL/2 cells; type: functional, cell-based, Lewis lung carcinoma
Jurkat = assay: Cytotoxicity against human Jurkat cells; type: functional, cell-based

Q: With `CC[C@@](C)(O)C(=O)N[C@@H]1CCCN1C(=O)[C@H]1[C@H](c2ccccc2)[C@]2(c3ccc(OC)cc3)Oc3cc(OC)cc(OC)c3[C@@]1(O)[C@H]2OC(C)=O` as the compound, how does the Activity (P388) read?
A: inactive

Q: What about the Activity (MOLT-4) of the same compound?
A: inactive

Q: What does the source list for `CC[C@@](C)(O)C(=O)N[C@@H]1CCCN1C(=O)[C@@H]1[C@@H](c2ccccc2)[C@]2(c3ccc(OC)cc3)Oc3cc(OC)cc(OC)c3[C@@]1(O)[C@H]2OC(C)=O`?
A: Activity (P388): inactive; Activity (MOLT-4): inactive

Q: With `CC[C@@](C)(O)C(=O)N[C@@H]1CCCN1C(=O)[C@@H]1[C@@H](c2ccccc2)[C@@]2(O)c3c(OC)cc(OC)cc3O[C@]1(c1ccc(OC)cc1)[C@H]2OC(C)=O` as the compound, how does the Activity (P388) read?
A: inactive

Q: And the Activity (MOLT-4)?
A: inactive

Q: With `CC[C@@](C)(O)C(=O)N[C@@H]1CCCN1C(=O)[C@@H]1[C@@H](c2ccccc2)[C@@]2(O)c3c(OC)cc(OC)cc3O[C@]1(c1ccc(OC)cc1)[C@H]2O` as the compound, how does the Activity (P388) read?
A: inactive

Q: And the Activity (MOLT-4)?
A: inactive

Q: For `COc1ccc([C@@]23Oc4cc(OC)cc(OC)c4[C@]2(O)[C@H](O)C[C@H]3c2ccccc2)cc1` [ROCAGLAOL], which IC50 (WEHI-164) is on record?
A: 0.023 µg/mL (≈ 0.0529 µM)

Q: What about the IC50 ([1]; Mus musculus, Lewis lung carcinoma, read-out: IC50) of the same compound?
A: 0.034 µg/mL (≈ 0.0783 µM)

Q: What about the IC50 (P388; Mus musculus, P388, read-out: IC50) of the same compound?
A: < 0.01 µg/mL

Q: What does the source list for `COc1cc(OC)c2c(c1)O[C@@]1(c3ccc(OC)c(O[C@@H]4O[C@H](C)[C@@H](O)[C@H](OC)[C@@H]4OC(C)=O)c3)[C@H](c3ccccc3)C[C@@H](O)[C@@]21O`?
A: IC50 ([1]; lewis lung carcinoma): 0.0042 µg/mL (≈ 0.00643 µM); IC50 (P388; p388): 0.036 µg/mL (≈ 0.0552 µM); IC50 (Jurkat): 0.0022 µg/mL (≈ 0.00337 µM)
